IC50 data for nine compounds are collected here from US20240124504A1, “AROMATIC HETEROCYCLIC COMPOUND, AND PHARMACEUTICAL COMPOSITION AND APPLICATION THEREOF” (GT APEIRON THERAPEUTICS LIMITED, priority 2020, published 2024).

The test system of assay [1] is human breast cancer cells HCC70. Briefly: Cell biological activity detection (CyQuant, 72 hours), HCC70. To be noted: incubation for 72 hours. The assay is classed as cell-based. Here is the method:
(§1) A2780 and HCC70 cells were subjected to trypsin digestion treatment, and cell suspensions were respectively transferred to 15 mL centrifuge tubes and centrifuged for 5 min at […]) rpm; supernatant was discarded, and resuspension was carried out in a fresh medium (RPMI 1640+10% FBS), after counting, cells were seeded into a 384-well plate at 2000/well (50 μL of 1640+10% FBS medium was added to the 2nd column and the 23rd column of the 384-well plate, and 50 μL of DPBS was added to the surrounding wells). Incubation was carried out overnight in an incubator (37° C., 5% CO2).
(§2) The compound was added to the well plates the next day. The compound had the highest concentration of 10 μM and was diluted at 1:4, and there were a total of 9 concentrations; and a positive compound Paclitaxel had the highest concentration of 1 μM and was diluted at 1:3, and there were a total of 9 concentrations. The DMSO content in each well was unified to 0.2%. The cell plates were centrifuged for 30 seconds at 800 rpm and placed in an incubator (37° C., 5% CO2) for incubation for 72 hours. On the fourth day, a Cyquant reagent (3×) was formulated according to kit instructions, and formulation was carried out for each 384-well plate according to the following proportions: DPBS 11.568 mL, CyQuant®? Direct nucleic acid stain 72 μL, and CyQuant® Direct background suppressor 360 μL. After uniform mixing, the reagent was placed at room temperature for further use. The cell plates were taken out and equilibrated for 30 min at room temperature, and 25 μL of the Cyquant reagent (3×) per well was dispensed into the cells of the 384-well plates by Multi-drop, and incubation was carried out for more than 60 minutes at 37° C. Acumen plate reading (Acumen setting: an excitation wavelength of 488 nm). IC50 results were analyzed by XLFIT5 from IDBS Company.

Assay [2] addresses CDK7/cyclinH/MAT1 complex (Homo sapiens, UniProt P50613). Kind of assay: In-vitro enzymatic inhibitory activity testing, CDK7 inhibition assay (Caliper EZ Reader II). The assay is classed as biochemical. Particulars: CDK7/cyclinH/MAT1 6 nM, 180 min at 27° C. Here is the method:
(§3) CDK12/CyclinK was diluted in an assay buffer (80 mM MES PH 6.5, 0.01% Tween 20, 50 ug/mL BSA, 10 mM MgCl2) to afford a corresponding enzyme solution with the 2.4 concentration. A compound was dissolved in dimethyl sulfoxide (DMSO) at a concentration of 10 mM. […] 2 ul of a test compound solution was mixed with 5 ul of the enzyme solution; after incubation for 10 min, 5 ul of the polypeptide substrate and ATP mixed solution was added; incubation was carried out for 180 min at 27° C.; and then, the reaction was terminated by adding 4 uL of EDTA with a concentration of 120 mM to each sample. […] A CDK9/cyclinT1 complex (8 nM) and a “5-FAM-CDK9tide” peptide substrate (2 IM, synthetic fluorophore-labeled peptide with the following sequence: 5-FAM-GSRTPMY-NH2, wherein 5-FAM was as defined above and NH2 represented C-terminal amide) were used for a CDK9 inhibition assay. […] A CDK2/cyclinE1 complex (0.5 nM) and “5-FAM-CDK7tide” (2 μM) as defined above were used for CDK2 inhibition assay.
(§4) A reaction mixture was analyzed on Caliper EZ Reader II by electrophoretic separation of a fluorogenic substrate and a phosphorylated product. Data were calculated by using GraphPad Prism version 6.0, and IC50 values were adjusted and obtained by using a nonlinear regression model of a dose response curve.

Assay [3] addresses CDK2/cyclinE1 complex (Homo sapiens, UniProt P24941). Briefly: In-vitro enzymatic inhibitory activity testing, CDK2 inhibition assay (Caliper EZ Reader II). The assay is classed as biochemical. Particulars: CDK2/cyclinE1 0.5 nM, 180 min at 27° C. Here is the method: CDK12/CyclinK was diluted in an assay buffer (80 mM MES PH 6.5, 0.01% Tween 20, 50 ug/mL BSA, 10 mM MgCl2) to afford a corresponding enzyme solution with the 2.4 concentration. […] A CDK9/cyclinT1 complex (8 nM) and a “5-FAM-CDK9tide” peptide substrate (2 IM, synthetic fluorophore-labeled peptide with the following sequence: 5-FAM-GSRTPMY-NH2, wherein 5-FAM was as defined above and NH2 represented C-terminal amide) were used for a CDK9 inhibition assay. […] A CDK2/cyclinE1 complex (0.5 nM) and “5-FAM-CDK7tide” (2 μM) as defined above were used for CDK2 inhibition assay.
as §4

Assay [4] has as its system ovarian cancer A2780. Briefly: Cell biological activity detection (CyQuant, 72 hours), A2780. To be noted: A2780 cells, incubation for 72 hours. The assay is classed as cell-based, human. Here is the method:
as §1, §2

Assay [5] has as its target CDK9/cyclinT1 complex (Homo sapiens, UniProt P50750). Kind of assay: In-vitro enzymatic inhibitory activity testing, CDK9 inhibition assay (Caliper EZ Reader II). It is filed as biochemical. Particulars: CDK9/cyclinT1 8 nM, 180 min at 27° C. Here is the method:
as §3, §4

The target in assay [6] is T1, CDK12 (aa686-1082)/cyclinK complex (Homo sapiens, UniProt Q9NYV4).
T1 construct: A CDK12 (aa686-1082)/cyclinK complex (50 nM)
Briefly: In-vitro enzymatic inhibitory activity testing, CDK12 inhibition assay (Caliper EZ Reader II). The assay is classed as biochemical. Particulars: CDK12/cyclinK 50 nM, 180 min at 27° C.; read-out: CDK12 IC50. On the procedure: An assay was carried out in a U-bottom 384-well plate (coming, 4512#), and the reaction temperature was 27° C. CDK7/CyclinH was diluted in an assay buffer (20 mM MES PH 6.75, 0.01% Tween 20, 50 ug/mL BSA, 6 mM MgCl2) to afford a corresponding enzyme solution with the 2.4× concentration. CDK2/CyclinE1 was diluted in an assay buffer (20 mM MES PH 6.75, 0.01% Tween 20, 50 ug/mL BSA, 6 mM MgCl2) to afford a corresponding enzyme solution with the 2.4× concentration. CDK9/CyclinT1 was diluted in an assay buffer (20 mM MES PH 6.75, 0.01% Tween 20, 50 ug/mL BSA, 10 mM MgCl2) to afford a corresponding enzyme solution with the 2.4× concentration. CDK12/CyclinK was diluted in an assay buffer (80 mM MES PH 6.5, 0.01% Tween 20, 50 ug/mL BSA, 10 mM MgCl2) to afford a corresponding enzyme solution with the 2.4 concentration. A compound was dissolved in dimethyl sulfoxide (DMSO) at a concentration of 10 mM. During use, the compound was diluted with DMSO into 10 concentration gradients from 25 nM to 500 uM, and respectively diluted by 8.3 folds in the assay buffer to afford a compound solution with a 6× concentration. A polypeptide substrate and ATP were diluted in the assay buffer to afford a polypeptide substrate and ATP mixed solution with a 2.4× concentration. 2 ul of a test compound solution was mixed with 5 ul of the enzyme solution; after incubation for 10 min, 5 ul of the polypeptide substrate and ATP mixed solution was added; incubation was carried out for 180 min at 27° C.; and then, the reaction was terminated by adding 4 uL of EDTA with a concentration of 120 mM to each sample. […]. Specifically, a CDK7/cyclinH/MAT1 complex (6 nM) and a “5-FAMCD K 7 tide” peptide substrate (2 μM, synthetic fluorophore-labeled peptide with the following sequence: 5-FAM-[…], wherein “5-FAM” refers to 5-carboxyfluorescein) were used for a CDK7 inhibition assay. A CDK9/cyclinT1 complex (8 nM) and a “5-FAM-CDK9tide” peptide substrate (2 IM, synthetic fluorophore-labeled peptide with the following sequence: 5-FAM-GSRTPMY-NH2, wherein 5-FAM was as defined above and NH2 represented C-terminal amide) were used for a CDK9 inhibition assay. A CDK12 (aa686-1082)/cyclinK complex (50 nM) and “5-FAM-CDK9tide” (2 μM) as defined above were used for a CDK12 inhibition assay. A CDK2/cyclinE1 complex (0.5 nM) and “5-FAM-CDK7tide” (2 μM) as defined above were used for CDK2 inhibition assay.
as §4

T1 sequence (Q9NYV4 686-1082, species assumed): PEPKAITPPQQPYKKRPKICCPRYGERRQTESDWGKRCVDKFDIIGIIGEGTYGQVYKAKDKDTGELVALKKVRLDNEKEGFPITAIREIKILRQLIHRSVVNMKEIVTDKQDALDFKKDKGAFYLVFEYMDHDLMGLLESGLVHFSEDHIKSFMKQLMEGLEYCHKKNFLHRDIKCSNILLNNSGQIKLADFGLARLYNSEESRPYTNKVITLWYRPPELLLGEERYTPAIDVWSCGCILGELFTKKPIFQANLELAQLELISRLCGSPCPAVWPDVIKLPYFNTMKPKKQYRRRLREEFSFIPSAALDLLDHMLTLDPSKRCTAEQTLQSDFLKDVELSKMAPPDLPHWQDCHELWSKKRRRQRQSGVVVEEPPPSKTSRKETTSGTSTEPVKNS
T1 sequence (O75909 whole entry partner, species assumed, the tested form may be a part): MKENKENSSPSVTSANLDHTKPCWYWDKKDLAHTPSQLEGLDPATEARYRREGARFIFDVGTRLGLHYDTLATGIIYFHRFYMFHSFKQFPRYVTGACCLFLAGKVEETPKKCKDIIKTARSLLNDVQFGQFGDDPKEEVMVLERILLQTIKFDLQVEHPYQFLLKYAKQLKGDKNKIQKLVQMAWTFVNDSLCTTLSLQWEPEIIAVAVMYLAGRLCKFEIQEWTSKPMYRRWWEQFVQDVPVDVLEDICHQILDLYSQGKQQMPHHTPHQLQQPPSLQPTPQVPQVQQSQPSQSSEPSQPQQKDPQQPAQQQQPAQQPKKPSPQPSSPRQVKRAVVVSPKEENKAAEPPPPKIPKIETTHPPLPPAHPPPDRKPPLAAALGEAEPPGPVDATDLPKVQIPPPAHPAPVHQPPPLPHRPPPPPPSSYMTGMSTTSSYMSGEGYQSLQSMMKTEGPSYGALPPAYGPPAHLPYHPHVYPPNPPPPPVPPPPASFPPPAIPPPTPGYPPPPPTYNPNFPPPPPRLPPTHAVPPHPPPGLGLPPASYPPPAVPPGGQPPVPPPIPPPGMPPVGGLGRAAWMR
Chain of CDK9/cyclinT1 complex (P50750 whole entry, species assumed): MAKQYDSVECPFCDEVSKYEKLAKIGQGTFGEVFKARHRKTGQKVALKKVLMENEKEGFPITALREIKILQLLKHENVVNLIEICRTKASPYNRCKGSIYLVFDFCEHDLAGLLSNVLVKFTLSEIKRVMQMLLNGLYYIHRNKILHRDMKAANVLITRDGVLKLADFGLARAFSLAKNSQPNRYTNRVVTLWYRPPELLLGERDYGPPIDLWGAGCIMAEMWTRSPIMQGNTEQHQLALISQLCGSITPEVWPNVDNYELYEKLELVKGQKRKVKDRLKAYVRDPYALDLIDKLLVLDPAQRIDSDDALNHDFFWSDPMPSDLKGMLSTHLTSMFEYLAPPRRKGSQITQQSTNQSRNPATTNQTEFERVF
Chain of CDK9/cyclinT1 complex (O60563 whole entry partner, species assumed): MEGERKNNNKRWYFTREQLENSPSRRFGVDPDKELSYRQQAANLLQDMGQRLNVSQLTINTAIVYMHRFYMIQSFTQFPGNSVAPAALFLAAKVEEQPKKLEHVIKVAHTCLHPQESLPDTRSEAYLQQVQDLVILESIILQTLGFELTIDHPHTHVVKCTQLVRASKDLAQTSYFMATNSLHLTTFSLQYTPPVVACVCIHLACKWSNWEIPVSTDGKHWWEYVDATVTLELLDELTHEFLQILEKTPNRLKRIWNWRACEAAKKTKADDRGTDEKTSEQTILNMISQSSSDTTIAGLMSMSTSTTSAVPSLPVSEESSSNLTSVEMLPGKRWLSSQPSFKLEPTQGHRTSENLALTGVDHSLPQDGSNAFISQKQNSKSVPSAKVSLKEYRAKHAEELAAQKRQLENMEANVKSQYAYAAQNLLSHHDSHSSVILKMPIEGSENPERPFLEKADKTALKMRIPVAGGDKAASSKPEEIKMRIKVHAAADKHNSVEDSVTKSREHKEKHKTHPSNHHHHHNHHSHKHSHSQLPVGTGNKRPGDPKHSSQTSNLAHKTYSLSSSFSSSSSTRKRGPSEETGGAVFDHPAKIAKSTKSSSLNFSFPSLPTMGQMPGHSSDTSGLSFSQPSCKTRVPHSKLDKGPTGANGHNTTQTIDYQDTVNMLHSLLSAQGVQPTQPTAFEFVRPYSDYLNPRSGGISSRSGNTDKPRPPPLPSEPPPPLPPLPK
Chain of CDK7/cyclinH/MAT1 complex (P50613 whole entry, species assumed): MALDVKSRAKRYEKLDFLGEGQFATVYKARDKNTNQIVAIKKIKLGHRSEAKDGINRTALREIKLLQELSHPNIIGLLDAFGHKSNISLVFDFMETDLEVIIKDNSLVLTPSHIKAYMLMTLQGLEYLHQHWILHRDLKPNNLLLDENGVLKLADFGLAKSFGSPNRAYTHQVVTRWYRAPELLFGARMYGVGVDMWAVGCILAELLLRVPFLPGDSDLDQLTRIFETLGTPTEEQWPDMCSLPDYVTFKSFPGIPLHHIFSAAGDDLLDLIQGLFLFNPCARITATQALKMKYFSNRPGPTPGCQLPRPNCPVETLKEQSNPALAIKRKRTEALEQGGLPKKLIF
Chain of CDK7/cyclinH/MAT1 complex (P51946 whole entry partner, species assumed): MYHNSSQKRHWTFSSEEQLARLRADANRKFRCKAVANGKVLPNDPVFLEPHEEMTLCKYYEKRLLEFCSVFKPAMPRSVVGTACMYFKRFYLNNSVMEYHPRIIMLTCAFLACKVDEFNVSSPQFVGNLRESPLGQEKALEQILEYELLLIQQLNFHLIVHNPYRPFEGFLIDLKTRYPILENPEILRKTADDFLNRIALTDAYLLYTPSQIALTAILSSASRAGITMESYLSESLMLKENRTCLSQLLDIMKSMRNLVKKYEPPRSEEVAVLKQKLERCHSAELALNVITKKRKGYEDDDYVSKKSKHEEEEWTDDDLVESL
Chain of CDK7/cyclinH/MAT1 complex (P51948 whole entry partner, species assumed): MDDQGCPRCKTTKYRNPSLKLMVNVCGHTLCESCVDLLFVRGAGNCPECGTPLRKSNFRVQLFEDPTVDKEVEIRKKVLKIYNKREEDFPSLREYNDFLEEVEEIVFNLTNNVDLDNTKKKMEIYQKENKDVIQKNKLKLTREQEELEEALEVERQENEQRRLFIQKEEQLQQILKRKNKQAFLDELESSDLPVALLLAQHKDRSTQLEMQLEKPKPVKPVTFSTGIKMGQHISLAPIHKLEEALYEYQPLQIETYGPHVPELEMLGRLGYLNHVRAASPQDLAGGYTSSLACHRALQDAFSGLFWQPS

For `CP(C)(=O)c1cccc2c(-c3nc(NCC4(O)CCC4)ncc3C(F)(F)F)c[nH]c12` [Compound 90], the IC50 was 0.02 to 0.2 µM in assay [1] (Homo sapiens, HCC70, 72 h); 0.02 to 0.2 µM in assay [2]; 5 to 50 µM in assay [3]; 0.02 to 0.2 µM in assay [4] (Homo sapiens, A2780, 72 h); 5 to 50 µM in assay [5]; above 50 µM in assay [6].
On to `CP(C)(=O)c1c(C#N)ccc2c(-c3nc(N[C@@H]4CCC45CNC5)ncc3C(F)(F)F)c[nH]c12` [Compound 77, (R)-3-(2-((2-azaspiro[3.3]heptan-5-yl)amino)-5-(trifluoromethyl)pyrimidin-4-yl)-7-(dimethylphosphoryl)-1H-indole-6-carbonitrile], for which the IC50 in assay [1] (Homo sapiens, HCC70, 72 h) is 0.02 to 0.2 µM; in assay [2], 0.02 to 0.2 µM; in assay [3], above 50 µM; in assay [4] (Homo sapiens, A2780, 72 h) it was 0.02 to 0.2 µM; in assay [5], above 50 µM; in assay [6], above 50 µM.
`C[C@@H]1C[C@H](Nc2ncc(C(F)(F)F)c(-c3c[nH]c4nc(N5CCOCC5)ccc34)n2)CCN1` [Compound 54, N-((2R,4R)-2-methylpiperidin-4-yl)-4-(6-morpholinyl-1H-pyrrolo[2,3-b]pyridin-3-yl)-5-(trifluoromethyl)pyrimidin-2-amine]: the IC50 is 0.2 to 5 µM in assay [1] (Homo sapiens, HCC70, 72 h); 0.02 to 0.2 µM in assay [2]; 5 to 50 µM in assay [3]; 0.2 to 5 µM in assay [4] (Homo sapiens, A2780, 72 h); above 50 µM in assay [5]; 5 to 50 µM in assay [6].
Consider `FC(F)(F)c1cnc(NC2COC3(CCNCC3)C2)nc1-c1c[nH]c2nc(N3CCOCC3)ccc12` (stereo not drawn) [Compound 51, N-(4-(6-morpholinyl-1H-pyrrolo[2,3-b]pyridin-3-yl)-5-(trifluoromethyl)pyrimidin-2-yl)-1-oxa-8-azaspiro[4.5]decan-3-amine], for which the IC50 fell in the range of 0.2 to 5 µM in assay [1] (Homo sapiens, HCC70, 72 h); 0.2 to 5 µM in assay [2]; 5 to 50 µM in assay [3]; 0.2 to 5 µM in assay [4] (Homo sapiens, A2780, 72 h); 5 to 50 µM in assay [5]; 5 to 50 µM in assay [6].
As for `CP(C)(=O)c1cccc2c(-c3nc(NCC(O)C(F)F)ncc3C(F)(F)F)c[nH]c12` (single isomer, unassigned) [Compound 125], the IC50 in assay [1] was 0.02 to 0.2 µM; in assay [2] it was 0.02 to 0.2 µM; in assay [3], 5 to 50 µM; in assay [4] it was 0.2 to 5 µM; in assay [5] it was above 50 µM; in assay [6], above 50 µM.
For `N#Cc1ccc2c(-c3nc(N[C@H]4CC[C@H](N)C4)ncc3C(F)(F)F)c[nH]c2n1` [Compound 65, 3-(2-(((1S,3S)-3-aminocyclopentyl)amino)-5-(trifluoromethyl)pyrimidin-4-yl)-1H-pyrrolo[2,3-b]pyridine-6-carbonitrile], the IC50 in assay [1] (Homo sapiens, HCC70, 72 h) was 0.02 to 0.2 µM; in assay [2] it was below 0.02 µM; in assay [3] it was 5 to 50 µM; in assay [4] (Homo sapiens, A2780, 72 h), 0.02 to 0.2 µM; in assay [5] it was 5 to 50 µM; in assay [6] it was 5 to 50 µM.
Take `FC(F)(F)c1cnc(NC2COC23CNC3)nc1-c1c[nH]c2nc(N3CCOCC3)ccc12` (stereo not drawn) [Compound 58, N-(4-(6-morpholinyl-1H-pyrrolo[2,3-b]pyridin-3-yl)-5-(trifluoromethyl)pyrimidin-2-yl)-1-oxa-6-azaspiro[3.3]heptan-3-amine]: the IC50 in assay [1] (Homo sapiens, HCC70, 72 h) is 0.02 to 0.2 µM; in assay [2], 0.02 to 0.2 µM; in assay [3], 5 to 50 µM; in assay [4] (Homo sapiens, A2780, 72 h), 0.2 to 5 µM; in assay [5], above 50 µM; in assay [6], above 50 µM.
`CP(C)(=O)c1cccc2c(-c3nc(NC4CC(F)(F)CC4O)ncc3C(F)(F)F)c[nH]c12` (single isomer, unassigned) [Compound 191]: the IC50 was 0.02 to 0.2 µM in assay [1] (Homo sapiens, HCC70, 72 h); below 0.02 µM in assay [2]; 0.2 to 5 µM in assay [3]; below 0.02 µM in assay [4] (Homo sapiens, A2780, 72 h).
Consider `C[C@H]1C[C@H](Nc2ncc(C(F)(F)F)c(-c3c[nH]c4nc(N5CCOCC5)ccc34)n2)CCN1` [Compound 53, N-((2S,4R)-2-methylpiperidin-4-yl)-4-(6-morpholinyl-1H-pyrrolo[2,3-b]pyridin-3-yl)-5-(trifluoromethyl)pyrimidin-2-amine], for which the IC50 lay in the range of 0.2 to 5 µM in assay [1] (Homo sapiens, HCC70, 72 h) and 0.2 to 5 µM in assay [4] (Homo sapiens, A2780, 72 h).

The term IC50 denotes the point on the concentration scale where inhibition reaches its midpoint.
